Tested on: Elongator complex protein 1 (ELPI, also referred to as IKBKAP)
Assay: IKBKAP-HTRF assay (IKBKAP protein in lysates of FD patient-derived fibroblasts)
Type: cell-based, human
Details: FD patient-derived fibroblasts GM04589, 48 hours, 7-point concentration curve
Experimental: The assay is used for the quantitative determination of Elongator complex protein 1 (ELPI, also referred to as IKBKAP) concentration in cell lysates using the HTRF® (Homogeneous Time-Resolved Fluorescence) technology. IKBKAP is detected in a sandwich HTRF assay by use of an anti-IKAP antibody labeled with a donor and an anti-IKAP antibody labeled with an acceptor.
Cells were thawed and incubated in DMEM-10% FBS for 72 hours. Cells were trypsinized, counted, and re-suspended to a concentration of 50,000 cells/ml in DMEM-10% FBS. A 199 μL aliquot of the cell suspensions were plated at 10,000 cells per well in a 96 well microtiter plate and incubated for 3 to 5 hours. […] Test compounds were serially diluted 3.16-fold in 100% DMSO to generate a 7-point concentration curve. A 1 μL aliquot of 200× compound solution was transferred to cell-containing wells, and cells were incubated for 48 hours in a cell culture incubator (37° C., 5% CO2, 100% relative humidity). Triplicate samples were set up for each compound concentration. After 48 hours, the supernatant was removed from the cells and 50 μL of the 1×LB4 lysis buffer, containing protease inhibitors, was added to the cells and incubated with shaking at room temperature for 1 hour. A 36 μL aliquot of this lysate was subsequently transferred to the 384-well plate containing 4 μL of the antibody solution (1:50 dilution of anti IKAP d2 and anti-IKAP K(9+8) in detection buffer). The 384-well plate was then centrifuged for 1 minute to bring the solutions to the bottom of the plate and incubated overnight at 4° C. Fluorescence for each well of the plate at 665 nm and 620 nm was measured was on the EnVision plate reader (Perkin Elmer). The ΔF for each sample is calculated by:
[formula] wherein Signal is the normalized fluorescence for each sample well and Blank is the average normalized average fluorescence for the Blank control wells.
The maximum fold increase (MFI) in IKBKAP protein abundance for compounds of Formula (I) or a form thereof relative to the vehicle control are provided in Table 1. MFI was calculated by dividing the ΔF value for each sample well by the sample ΔF for the vehicle control wells.
The EC2x for IKBKAP protein expression obtained from the 7-point concentration curve generated for each test compound according to the protocol in Biological Example 1 are also provided in Table 1. The term “EC2x for IKBKAP protein expression” is defined as the concentration of test compound that is effective in producing two times the amount of IKBKAP protein in a FD patient cell compared to the amount produced from the DMSO vehicle control.

SMILES | EC2x for IKBKAP protein expression (concentration producing two times the amount of IKBKAP protein vs DMSO vehicle control) | MFI (maximum fold increase in IKBKAP protein abundance relative to the vehicle control)
C[C@H](N)Cc1[nH]c2nc(Cl)nc(NCc3nccs3)c2c1F.Cl [Cpd 36, 6-[(2S)-2-aminopropyl]-2-chloro-5-fluoro-N-[(1,3-thiazol-2-yl)methyl]-7H-pyrrolo[2,3-d]pyrimidin-4-amine hydrochloride] | **** (between >0.005 μM and ≤0.02 μM is indicated by four stars (****)) | ***** (>4.9 is indicated by five stars (*****))
COC[C@H](N)Cc1c(F)c2c(NCc3ccco3)nc(Cl)nc2n1C.Cl [Cpd 37, 6-[(2R)-2-amino-3-methoxypropyl]-2-chloro-5-fluoro-N-[(furan-2-yl)methyl]-7-methyl-7H-pyrrolo[2,3-d]pyrimidin-4-amine hydrochloride] | *** (between >0.02 μM and ≤0.5 μM is indicated by three stars (***)) | ***** (>4.9 is indicated by five stars (*****))
C[C@H](N)Cc1c(F)c2c(NCc3nccs3)nc(Cl)nc2n1C.Cl [Cpd 38, 6-[(2S)-2-aminopropyl]-2-chloro-5-fluoro-7-methyl-N-[(1,3-thiazol-2-yl)methyl]-7H-pyrrolo[2,3-d]pyrimidin-4-amine hydrochloride] | *** (between >0.02 μM and ≤0.5 μM is indicated by three stars (***)) | ***** (>4.9 is indicated by five stars (*****))
Cl.Cn1c(C[C@@H](N)CO)c(F)c2c(NCc3ccco3)nc(Cl)nc21 [Cpd 39, (2R)-2-amino-3-(2-chloro-5-fluoro-4-{[(furan-2-yl)methyl]amino}-7-methyl-7H-pyrrolo[2,3-d]pyrimidin-6-yl)propan-1-ol hydrochloride] | **** (between >0.005 μM and ≤0.02 μM is indicated by four stars (****)) | ***** (>4.9 is indicated by five stars (*****))
C[C@H](N)Cc1[nH]c2nc(Cl)nc(NCc3cccs3)c2c1F.Cl [Cpd 40, 6-[(2S)-2-aminopropyl]-2-chloro-5-fluoro-N-[(thiophen-2-yl)methyl]-7H-pyrrolo[2,3-d]pyrimidin-4-amine hydrochloride] | **** (between >0.005 μM and ≤0.02 μM is indicated by four stars (****)) | ***** (>4.9 is indicated by five stars (*****))
C[C@H](N)Cc1c(F)c2c(NCc3ccncc3F)nc(Cl)nc2n1C.Cl.Cl [Cpd 41, 6-[(2S)-2-aminopropyl]-2-chloro-5-fluoro-N-[(3-fluoropyridin-4-yl)methyl]-7-methyl-7H-pyrrolo[2,3-d]pyrimidin-4-amine dihydrochloride] | *** (between >0.02 μM and ≤0.5 μM is indicated by three stars (***)) | ***** (>4.9 is indicated by five stars (*****))
CCn1c(C[C@H](C)N)c(F)c2c(NCc3ccco3)nc(Cl)nc21.Cl [Cpd 42, 6-[(2S)-2-aminopropyl]-2-chloro-7-ethyl-5-fluoro-N-[(furan-2-yl)methyl]-7H-pyrrolo[2,3-d]pyrimidin-4-amine hydrochloride] | *** (between >0.02 μM and ≤0.5 μM is indicated by three stars (***)) | ** (between >1.9 and ≤2.9 is indicated by two stars (**))
C[C@H](N)Cc1c(F)c2c(NCc3ccncc3)nc(Cl)nc2n1C.Cl.Cl [Cpd 43, 6-[(2S)-2-aminopropyl]-2-chloro-5-fluoro-7-methyl-N-[(pyridin-4-yl)methyl]-7H-pyrrolo[2,3-d]pyrimidin-4-amine dihydrochloride] | *** (between >0.02 μM and ≤0.5 μM is indicated by three stars (***)) | ***** (>4.9 is indicated by five stars (*****))
CC[C@H](N)Cc1[nH]c2nc(Cl)nc(NCc3ccco3)c2c1F.Cl [Cpd 44, 6-[(2S)-2-aminobutyl]-2-chloro-5-fluoro-N-[(furan-2-yl)methyl]-7H-pyrrolo[2,3-d]pyrimidin-4-amine hydrochloride] | **** (between >0.005 μM and ≤0.02 μM is indicated by four stars (****)) | ***** (>4.9 is indicated by five stars (*****))
CC[C@H](N)Cc1c(F)c2c(NCc3ccco3)nc(Cl)nc2n1C.Cl [Cpd 45, 6-[(2S)-2-aminobutyl]-2-chloro-5-fluoro-N-[(furan-2-yl)methyl]-7-methyl-7H-pyrrolo[2,3-d]pyrimidin-4-amine hydrochloride] | *** (between >0.02 μM and ≤0.5 μM is indicated by three stars (***)) | ***** (>4.9 is indicated by five stars (*****))
COc1ccc(-n2c(C[C@H](C)N)c(F)c3c(NCc4ccco4)nc(Cl)nc32)cc1.Cl [Cpd 46, 6-[(2S)-2-aminopropyl]-2-chloro-5-fluoro-N-[(furan-2-yl)methyl]-7-(4-methoxyphenyl)-7H-pyrrolo[2,3-d]pyrimidin-4-amine hydrochloride] | * (An EC2x>1 μM is indicated by one star (*)) | * (An MFI≤1.9 is indicated by one star (*))
COc1ccc(-n2c(C[C@H](C)N)c(F)c3c(NCc4cccs4)nc(Cl)nc32)cc1.Cl [Cpd 47, 6-[(2S)-2-aminopropyl]-2-chloro-5-fluoro-7-(4-methoxyphenyl)-N-[(thiophen-2-yl)methyl]-7H-pyrrolo[2,3-d]pyrimidin-4-amine hydrochloride] | * (An EC2x>1 μM is indicated by one star (*)) | * (An MFI≤1.9 is indicated by one star (*))
C[C@H](N)Cc1c(F)c2c(NCc3cncs3)nc(Cl)nc2n1C.Cl.Cl [Cpd 48, 6-[(2S)-2-aminopropyl]-2-chloro-5-fluoro-7-methyl-N-[(1,3-thiazol-5-yl)methyl]-7H-pyrrolo[2,3-d]pyrimidin-4-amine dihydrochloride] | * (An EC2x>1 μM is indicated by one star (*)) | * (An MFI≤1.9 is indicated by one star (*))
C[C@H](N)Cc1c(F)c2c(NCc3cccs3)nc(Cl)nc2n1C.Cl [Cpd 49, 6-[(2S)-2-aminopropyl]-2-chloro-5-fluoro-7-methyl-N-[(thiophen-2-yl)methyl]-7H-pyrrolo[2,3-d]pyrimidin-4-amine hydrochloride] | **** (between >0.005 μM and ≤0.02 μM is indicated by four stars (****)) | ***** (>4.9 is indicated by five stars (*****))
C[C@H](N)Cc1[nH]c2nc(Cl)nc(NCc3ccccc3)c2c1F.Cl [Cpd 50, 6-[(2S)-2-aminopropyl]-N-benzyl-2-chloro-5-fluoro-7H-pyrrolo[2,3-d]pyrimidin-4-amine hydrochloride] | *** (between >0.02 μM and ≤0.5 μM is indicated by three stars (***)) | *** (between >2.9 and ≤3.9 is indicated by three stars (***))
C[C@H](N)Cc1c(F)c2c(NCc3ccccc3)nc(Cl)nc2n1C.Cl [Cpd 51, 6-[(2S)-2-aminopropyl]-N-benzyl-2-chloro-5-fluoro-7-methyl-7H-pyrrolo[2,3-d]pyrimidin-4-amine hydrochloride] | *** (between >0.02 μM and ≤0.5 μM is indicated by three stars (***)) | *** (between >2.9 and ≤3.9 is indicated by three stars (***))
C[C@H](N)Cc1[nH]c2nc(Cl)nc(NCc3ccccc3F)c2c1F.Cl [Cpd 52, 6-[(2S)-2-aminopropyl]-2-chloro-5-fluoro-N-[(2-fluorophenyl)methyl]-7H-pyrrolo[2,3-d]pyrimidin-4-amine hydrochloride] | *** (between >0.02 μM and ≤0.5 μM is indicated by three stars (***)) | **** (between >3.9 and ≤4.9 is indicated by four stars (****))
